The results in this text go back to patent publication US20260285872A1, “COMPOUNDS AND METHODS FOR DEGRADING GSPT1” (priority 2023, published 2026).

Molecules are shown by their SMILES. Read-outs that look alike come from different tables or passages of the source.

The test system of one assay is NCI-H1155 cells. Description: NSCLC cell viability, CellTiter-Glo, NCI-H1155 cells. In kind it is cell-based. The settings on record: Homo sapiens; NCI-H1155 cells, CellTiter-Glo, 72 hours of treatment; read-out: Cell viability classification (NCI-H1155). For orientation: ATP-based viability assays read luminescence as a measure of living cells.
The target of the next assay is GSPT1 (Homo sapiens, UniProt P15170+Q96SW2). In kind it is cell-based. As to the method:
GSPT1_HiBIT_HEK293 cells were culture in DMEM medium with 10% FBS under standard tissue culture conditions. […] GSPT1 level was determined in along with the Nano-Glo HiBiT Lytic Detection system [Promega N3050] with final concentration of 1×. The luminescence was normalized to that of DMSO-treated samples. DC50 values were obtained using three-parameter non-linear regressions using Prism (GraphPad).

Where [1] appears, read: read-out: GSPT1 degradation classification; DC50, GSPT1_HiBIT_HEK293 cells, 16 hours, Nano-Glo HiBiT Lytic Detection.
[2] abbreviates: DC50, GSPT1_HiBIT_HEK293 cells, 16 hours, Nano-Glo HiBiT Lytic Detection; read-out: GSPT1 degradation classification.

GSPT1, sequence (P15170 whole entry): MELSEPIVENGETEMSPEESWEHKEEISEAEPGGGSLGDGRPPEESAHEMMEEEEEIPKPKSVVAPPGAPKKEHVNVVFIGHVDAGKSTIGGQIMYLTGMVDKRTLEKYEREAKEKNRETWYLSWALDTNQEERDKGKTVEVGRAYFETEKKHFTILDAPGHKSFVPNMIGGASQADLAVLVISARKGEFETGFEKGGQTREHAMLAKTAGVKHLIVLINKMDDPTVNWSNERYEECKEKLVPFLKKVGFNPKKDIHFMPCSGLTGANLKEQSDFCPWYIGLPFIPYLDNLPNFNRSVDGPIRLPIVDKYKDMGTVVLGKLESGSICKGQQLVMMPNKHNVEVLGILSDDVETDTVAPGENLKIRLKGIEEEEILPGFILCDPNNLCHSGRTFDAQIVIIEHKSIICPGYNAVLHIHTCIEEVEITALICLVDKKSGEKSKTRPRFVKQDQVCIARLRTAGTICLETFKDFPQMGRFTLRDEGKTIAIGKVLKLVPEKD
GSPT1, sequence (Q96SW2 whole entry): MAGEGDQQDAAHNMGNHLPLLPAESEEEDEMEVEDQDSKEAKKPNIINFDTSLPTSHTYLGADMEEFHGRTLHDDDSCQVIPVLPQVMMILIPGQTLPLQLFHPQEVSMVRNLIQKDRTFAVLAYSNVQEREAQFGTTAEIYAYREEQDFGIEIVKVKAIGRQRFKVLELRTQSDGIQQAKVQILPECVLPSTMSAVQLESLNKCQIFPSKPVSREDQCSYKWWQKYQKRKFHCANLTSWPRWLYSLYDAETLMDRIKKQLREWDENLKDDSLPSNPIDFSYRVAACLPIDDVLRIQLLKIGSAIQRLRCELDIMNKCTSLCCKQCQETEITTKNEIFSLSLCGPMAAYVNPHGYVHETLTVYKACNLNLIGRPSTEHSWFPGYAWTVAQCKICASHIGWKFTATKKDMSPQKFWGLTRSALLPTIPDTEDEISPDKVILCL
GSPT1, sequence (Q16531 whole entry partner): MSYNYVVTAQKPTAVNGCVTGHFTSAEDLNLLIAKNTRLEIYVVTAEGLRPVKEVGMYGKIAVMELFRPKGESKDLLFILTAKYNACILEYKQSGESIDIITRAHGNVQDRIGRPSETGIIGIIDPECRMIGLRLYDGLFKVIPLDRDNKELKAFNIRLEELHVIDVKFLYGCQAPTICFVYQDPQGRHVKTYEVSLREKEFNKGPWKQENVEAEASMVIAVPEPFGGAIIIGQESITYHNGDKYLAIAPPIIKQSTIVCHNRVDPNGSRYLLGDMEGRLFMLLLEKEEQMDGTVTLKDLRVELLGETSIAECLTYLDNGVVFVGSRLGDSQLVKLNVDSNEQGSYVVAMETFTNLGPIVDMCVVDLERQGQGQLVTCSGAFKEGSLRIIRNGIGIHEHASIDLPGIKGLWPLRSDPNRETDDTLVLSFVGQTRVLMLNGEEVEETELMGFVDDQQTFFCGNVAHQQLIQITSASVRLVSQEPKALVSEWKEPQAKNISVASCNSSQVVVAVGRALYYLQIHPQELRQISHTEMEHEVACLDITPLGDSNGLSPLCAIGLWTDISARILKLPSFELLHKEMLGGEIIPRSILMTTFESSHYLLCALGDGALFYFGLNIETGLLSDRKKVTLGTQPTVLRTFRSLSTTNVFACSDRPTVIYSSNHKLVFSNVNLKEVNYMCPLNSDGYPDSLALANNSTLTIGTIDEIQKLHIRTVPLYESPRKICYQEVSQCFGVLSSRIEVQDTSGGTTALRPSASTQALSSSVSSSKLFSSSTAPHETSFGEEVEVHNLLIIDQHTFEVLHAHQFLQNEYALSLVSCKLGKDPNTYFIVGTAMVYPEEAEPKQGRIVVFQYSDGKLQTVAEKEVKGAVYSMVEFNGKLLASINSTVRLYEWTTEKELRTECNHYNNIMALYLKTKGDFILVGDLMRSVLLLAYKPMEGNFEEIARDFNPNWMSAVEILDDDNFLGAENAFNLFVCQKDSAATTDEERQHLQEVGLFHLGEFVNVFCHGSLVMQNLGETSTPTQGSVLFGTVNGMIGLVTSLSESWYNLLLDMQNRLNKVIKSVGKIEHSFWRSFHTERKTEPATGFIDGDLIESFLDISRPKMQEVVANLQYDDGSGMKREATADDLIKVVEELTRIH

Take `O=C1CCC(N2Cc3cc(C(=O)N4Cc5cc(F)cc(F)c5C4)ccc3C2=O)C(=O)N1` (stereo not drawn) [Example 103, 3-(5-(4,6-difluoroisoindoline-2-carbonyl)-1-oxoisoindolin-2-yl)piperidine-2,6-dione]: the IC50 in the assay with NCI-H1155 cells was < 10 nM. Also, the DC50 on GSPT1 (setting [1]) is < 100 nM.

`O=C1CCC(c2nc3ccc(C(=O)N4CCc5ccc(F)cc54)cc3o2)C(=O)N1` (stereo not drawn) [Example 107, 3-(6-(6-fluoroindoline-1-carbonyl)benzo[d]oxazol-2-yl)piperidine-2,6-dione]: in the assay on NCI-H1155 cells, the IC50 lay within 100 to 1000 nM. Moreover, the DC50 at GSPT1 (setting [2]) was 300 to 1000 nM.

Consider `O=C1CCC(N2Cc3cc(C(=O)N4Cc5ccc(F)c(F)c5C4)ccc3C2=O)C(=O)N1` (stereo not drawn) [Example 109, 3-(5-(4,5-difluoroisoindoline-2-carbonyl)-1-oxoisoindolin-2-yl)piperidine-2,6-dione], for which, in the assay on NCI-H1155 cells, the IC50 lay within 10 to 100 nM. Also, the DC50 at GSPT1 (setting [1]) was < 100 nM.

Take `O=C1CCC(N2Cc3cc(C(=O)N4Cc5cccc(Cl)c5C4)ccc3C2=O)C(=O)N1` (stereo not drawn) [Example 112, 3-(5-(4-chloroisoindoline-2-carbonyl)-1-oxoisoindolin-2-yl)piperidine-2,6-dione]: the IC50 in the assay on NCI-H1155 cells was < 10 nM. Further, the DC50 at GSPT1 (setting [1]) was < 100 nM.

As for `Cc1cccc2c1CN(C(=O)c1ccc3c(c1)CN(C1CCC(=O)NC1=O)C3=O)C2` (stereo not drawn) [Example 130, 3-(5-(4-methylisoindoline-2-carbonyl)-1-oxoisoindolin-2-yl)piperidine-2,6-dione], the IC50 with NCI-H1155 cells was in the range of 10 to 100 nM. Besides, the DC50 on GSPT1 (setting [1]) was < 100 nM.

Consider `C[C@@H]1CN(C(=O)c2ccc3c(c2)CN(C2CCC(=O)NC2=O)C3=O)c2cc(F)ccc21` (stereo partly drawn) [Example 133, 3-(5-((S)-6-fluoro-3-methylindoline-1-carbonyl)-1-oxoisoindolin-2-yl)piperidine-2,6-dione], for which, in the assay with NCI-H1155 cells, the IC50 was < 10 nM. In addition, the DC50 on GSPT1 (setting [1]) is < 100 nM.

On to `O=C1CCC(c2nc3ccc(C(=O)N4Cc5cccc(F)c5C4)cc3o2)C(=O)N1` (stereo not drawn) [Example 137, 3-(6-(4-fluoroisoindoline-2-carbonyl)benzo[d]oxazol-2-yl)piperidine-2,6-dione], for which the IC50 in the assay with NCI-H1155 cells lay within 100 to 1000 nM. The DC50 on GSPT1 (setting [2]) was in the range of 300 to 1000 nM.

With `O=C1CCC(N2Cc3cc(C(=O)N4CC5(CC(C(F)(F)F)C5)C4)ccc3C2=O)C(=O)N1` (stereo not drawn) [Example 145, 3-(1-oxo-5-(6-(trifluoromethyl)-2-azaspiro[3.3]heptane-2-carbonyl)isoindolin-2-yl)piperidine-2,6-dione], the IC50 in the assay with NCI-H1155 cells lay in the range of 10 to 100 nM. On GSPT1 (setting [1]), the DC50 was > 1000 nM.

For `O=C1CCC(N2Cc3cc(C(=O)N4Cc5c(F)ccc(F)c5C4)ccc3C2=O)C(=O)N1` (stereo not drawn) [Example 147, 3-(5-(4,7-difluoroisoindoline-2-carbonyl)-1-oxoisoindolin-2-yl)piperidine-2,6-dione], the IC50 with NCI-H1155 cells lay in the range of 10 to 100 nM. The DC50 on GSPT1 (setting [1]) is < 100 nM.

Turning to `O=C1CCC(c2nc3ccc(C(=O)N4Cc5cccc(Cl)c5C4)cc3o2)C(=O)N1` (stereo not drawn) [Example 158, 3-(6-(4-chloroisoindoline-2-carbonyl)benzo[d]oxazol-2-yl)piperidine-2,6-dione], the IC50 with NCI-H1155 cells was in the range of 10 to 100 nM. The DC50 at GSPT1 (setting [2]) lay within 100 to 300 nM.

Turning to `Cc1cccc2c1CN(C(=O)c1ccc3nc(C4CCC(=O)NC4=O)oc3c1)C2` (stereo not drawn) [Example 161, 3-(6-(4-methylisoindoline-2-carbonyl)benzo[d]oxazol-2-yl)piperidine-2,6-dione], in the assay on NCI-H1155 cells, the IC50 is 10 to 100 nM. Also, the DC50 at GSPT1 (setting [2]) lay within 100 to 300 nM.

As for `O=C1CCC(c2nc3cc(COC(=O)Nc4cc(OC(F)(F)F)ccc4F)ccc3o2)C(=O)N1` (stereo not drawn) [Example 164, (2-(2,6-dioxopiperidin-3-yl)benzo[d]oxazol-5-yl)methyl (2-fluoro-5-(trifluoromethoxy)phenyl)carbamate], in the assay on NCI-H1155 cells, the IC50 is 10 to 100 nM. For the same molecule, the DC50 at GSPT1 (setting [2]) lay within 100 to 300 nM.

On to `O=C1CCC(N2Cc3cc(C(=O)N4CC5(C=C(c6ccc(F)cc6)C5)C4)ccc3C2=O)C(=O)N1` (stereo not drawn) [Example 169, 3-(5-(6-(4-fluorophenyl)-2-azaspiro[3.3]hept-5-ene-2-carbonyl)-1-oxoisoindolin-2-yl)piperidine-2,6-dione], for which the IC50 with NCI-H1155 cells is 10 to 100 nM. The DC50 at GSPT1 (setting [1]) was > 1000 nM.

Regarding `O=C1CCC(c2nc3ccc(C(=O)N4Cc5cccc(C(F)(F)F)c5C4)cc3o2)C(=O)N1` (stereo not drawn) [Example 174, 3-(6-(4-(trifluoromethyl)isoindoline-2-carbonyl)benzo[d]oxazol-2-yl)piperidine-2,6-dione], the IC50 in the assay with NCI-H1155 cells is 100 to 1000 nM. In addition, the DC50 at GSPT1 (setting [2]) fell in the range of 300 to 1000 nM.

For `O=C1CCC(c2nc3ccc(C(=O)N4Cc5cc(F)cc(F)c5C4)cc3o2)C(=O)N1` (stereo not drawn) [Example 176, 3-(6-(4,6-difluoroisoindoline-2-carbonyl)benzo[d]oxazol-2-yl)piperidine-2,6-dione], the IC50 in the assay with NCI-H1155 cells lay in the range of 100 to 1000 nM. In addition, at GSPT1 (setting [2]), the DC50 was in the range of 300 to 1000 nM.

`O=C1CCC(c2nc3ccc(C(=O)N4Cc5cc(F)cc(Cl)c5C4)cc3o2)C(=O)N1` (stereo not drawn) [Example 178, 3-(6-(4-chloro-6-fluoroisoindoline-2-carbonyl)benzo[d]oxazol-2-yl)piperidine-2,6-dione]: in the assay with NCI-H1155 cells, the IC50 is 10 to 100 nM. In addition, the DC50 on GSPT1 (setting [2]) was in the range of 300 to 1000 nM.

For the molecule `O=C1CCC(N2Cc3cc(C(=O)N4Cc5cccc(F)c5C45CC5)ccc3C2=O)C(=O)N1` (stereo not drawn) [Example 182, 3-(5-(7′-fluorospiro[cyclopropane-1,1′-isoindoline]-2′-carbonyl)-1-oxoisoindolin-2-yl)piperidine-2,6-dione], in the assay on NCI-H1155 cells, the IC50 was < 10 nM. In addition, the DC50 on GSPT1 (setting [1]) is < 100 nM.

Regarding `O=C1CCC(N2Cc3cc(C(=O)N4CC5(CCC(OC(F)(F)F)CC5)C4)ccc3C2=O)C(=O)N1` (stereo not drawn) [Example 184, 3-(1-oxo-5-(7-(trifluoromethoxy)-2-azaspiro[3.5]nonane-2-carbonyl)isoindolin-2-yl)piperidine-2,6-dione], in the assay with NCI-H1155 cells, the IC50 lay within 10 to 100 nM. Further, the DC50 at GSPT1 (setting [2]) is 100 to 300 nM.

With `O=C1CCC(N2Cc3cc(C(=O)N4CC5(CC(c6ccc(C(F)(F)F)cc6F)C5)C4)ccc3C2=O)C(=O)N1` (stereo not drawn) [Example 246, 3-(5-(6-(2-fluoro-4-(trifluoromethyl)phenyl)-2-azaspiro[3.3]heptane-2-carbonyl)-1-oxoisoindolin-2-yl)piperidine-2,6-dione], the IC50 in the assay with NCI-H1155 cells lay in the range of 10 to 100 nM.

As to `O=C1CCC(N2Cc3cc(C(=O)N4CCC5(C=C(c6ccc(F)cc6)C5)C4)ccc3C2=O)C(=O)N1` (stereo not drawn) [Example 247, 3-(5-(2-(4-fluorophenyl)-6-azaspiro[3.4]oct-1-ene-6-carbonyl)-1-oxoisoindolin-2-yl)piperidine-2,6-dione], the IC50 in the assay with NCI-H1155 cells is 10 to 100 nM.

With `O=C1CCC(N2Cc3cc(C(=O)N4CCC5(CC(c6ccc(F)cc6)C5)C4)ccc3C2=O)C(=O)N1` (stereo not drawn) [Example 248, 3-(5-(2-(4-fluorophenyl)-6-azaspiro[3.4]octane-6-carbonyl)-1-oxoisoindolin-2-yl)piperidine-2,6-dione], the IC50 in the assay with NCI-H1155 cells fell in the range of 10 to 100 nM.

In the case of `O=C1CCC(N2Cc3cc(C(=O)N4CCC5(C=C(c6cccc(F)c6)C5)C4)ccc3C2=O)C(=O)N1` (stereo not drawn) [Example 249, 3-(5-(2-(3-fluorophenyl)-6-azaspiro[3.4]oct-1-ene-6-carbonyl)-1-oxoisoindolin-2-yl)piperidine-2,6-dione], the IC50 in the assay on NCI-H1155 cells lay in the range of 10 to 100 nM.

`O=C1CCC(N2Cc3cc(C(=O)N4CCC5(CC(c6cccc(F)c6)C5)C4)ccc3C2=O)C(=O)N1` (stereo not drawn) [Example 250, 3-(5-(2-(3-fluorophenyl)-6-azaspiro[3.4]octane-6-carbonyl)-1-oxoisoindolin-2-yl)piperidine-2,6-dione]: the IC50 in the assay with NCI-H1155 cells was in the range of 100 to 1000 nM.

Turning to `O=C1CCC(N2Cc3cc(C(=O)N4CC5(CCC(C(F)(F)F)CC5)C4)ccc3C2=O)C(=O)N1` (stereo not drawn) [Example 251, 3-(1-oxo-5-(7-(trifluoromethyl)-2-azaspiro[3.5]nonane-2-carbonyl)isoindolin-2-yl)piperidine-2,6-dione], the IC50 in the assay with NCI-H1155 cells was in the range of 100 to 1000 nM.

On to `O=C1CCC(c2nc3ccc(C(=O)N4CC5(CCC(C(F)(F)F)C5)C4)cc3o2)C(=O)N1` (stereo not drawn) [Example 252, 3-(6-(6-(trifluoromethyl)-2-azaspiro[3.4]octane-2-carbonyl)benzo[d]oxazol-2-yl)piperidine-2,6-dione], for which the IC50 in the assay with NCI-H1155 cells is > 1000 nM.

Take `O=C1CCC(c2nc3cc(COC(=O)NC4CC5(C4)CC(F)(F)C5)ccc3o2)C(=O)N1` (stereo not drawn) [Example 253, (2-(2,6-dioxopiperidin-3-yl)benzo[d]oxazol-5-yl)methyl (6,6-difluorospiro[3.3]heptan-2-yl)carbamate]: the IC50 in the assay on NCI-H1155 cells is > 1000 nM.

Consider `O=C1CCC(N2Cc3cc(C(=O)NC4CC5(C=C(c6ccc(C(F)(F)F)cc6)C5)C4)ccc3C2=O)C(=O)N1` (stereo not drawn) [Example 256, 2-(2,6-dioxopiperidin-3-yl)-1-oxo-N-(6-(4-(trifluoromethyl)phenyl)spiro[3.3]hept-5-en-2-yl)isoindoline-5-carboxamide], for which, in the assay with NCI-H1155 cells, the IC50 is 100 to 1000 nM.

Turning to `O=C1CCC(c2nc3ccc(C(=O)N4CC5(CCC(C(F)(F)F)CC5)C4)cc3o2)C(=O)N1` (stereo not drawn) [Example 259, 3-(6-(7-(trifluoromethyl)-2-azaspiro[3.5]nonane-2-carbonyl)benzo[d]oxazol-2-yl)piperidine-2,6-dione], in the assay with NCI-H1155 cells, the IC50 is > 1000 nM.

As for `O=C1CCC(c2nc3cc(COC(=O)NC4CC5(CCC(F)(F)CC5)C4)ccc3o2)C(=O)N1` (stereo not drawn) [Example 260, (2-(2,6-dioxopiperidin-3-yl)benzo[d]oxazol-5-yl)methyl (7,7-difluorospiro[3.5]nonan-2-yl)carbamate], the IC50 in the assay with NCI-H1155 cells was in the range of 100 to 1000 nM.

Consider `O=C1CCC(c2nc3cc(COC(=O)N4CC5(C4)CC(F)(F)C5)ccc3o2)C(=O)N1` (stereo not drawn) [Example 262, (2-(2,6-dioxopiperidin-3-yl)benzo[d]oxazol-5-yl)methyl 6,6-difluoro-2-azaspiro[3.3]heptane-2-carboxylate], for which the IC50 with NCI-H1155 cells is > 1000 nM.
